For data set [1], the system named is MV4-11. Nature of the data set: Cytotoxicity against human MV4-11 cells assessed as reduction in cell viability incubated for 72 hrs by cell-titer blue assay. The conditions noted are these: MV4-11, 72 h. It is filed as functional, cell-based.
Data set [2] relates to MV4-11. Briefly: Induction of apoptosis in human MV4-11 cells assessed as early apoptotic cells at 1 uM incubated for 18 hrs by annexin V FITC and PI based flow cytometry (reference value: 19.46 to 22.17 %). It is filed as functional.
Data set [3] relates to MV4-11. Nature of the data set: Induction of apoptosis in human MV4-11 cells assessed as early apoptotic cells at 2 uM incubated for 18 hrs by annexin V FITC and PI based flow cytometry (reference value: 19.46 to 22.17 %). It is filed as functional.
Data set [4] relates to MV4-11. Briefly: Induction of apoptosis in human MV4-11 cells assessed as late apoptotic cells at 0.25 uM incubated for 18 hrs by annexin V FITC and PI based flow cytometry (reference value: 9.2 to 9.63 %). Type of data set: functional.
In data set [5] the test system is MV4-11. Nature of the data set: Induction of apoptosis in human MV4-11 cells assessed as late apoptotic cells at 0.5 uM incubated for 18 hrs by annexin V FITC and PI based flow cytometry (reference value: 9.2 to 9.63 %). Type of data set: functional.
Data set [6] relates to MV4-11. Briefly: Induction of apoptosis in human MV4-11 cells assessed as viable cells at 0.25 uM incubated for 18 hrs by annexin V FITC and PI based flow cytometry (reference value: 53.01 to 53.07 %). It is filed as functional.
Data set [7] concerns MV4-11. Briefly: Induction of apoptosis in human MV4-11 cells assessed as early apoptotic cells at 0.25 uM incubated for 18 hrs by annexin V FITC and PI based flow cytometry (reference value: 19.46 to 22.17 %). Type of data set: functional.
Data set [8] has as its system MV4-11. Briefly: Induction of apoptosis in human MV4-11 cells assessed as viable cells at 0.5 uM incubated for 18 hrs by annexin V FITC and PI based flow cytometry (reference value: 53.01 to 53.07 %). Type of data set: functional.
For data set [9], the system named is MV4-11. Briefly: Induction of apoptosis in human MV4-11 cells assessed as early apoptotic cells at 0.5 uM incubated for 18 hrs by annexin V FITC and PI based flow cytometry (reference value: 19.46 to 22.17 %). It is filed as functional.
For data set [10], the system named is MV4-11. Nature of the data set: Induction of apoptosis in human MV4-11 cells assessed as viable cells at 1 uM incubated for 18 hrs by annexin V FITC and PI based flow cytometry (reference value: 53.01 to 53.07 %). Type of data set: functional.
The test system of data set [11] is MV4-11. Nature of the data set: Induction of apoptosis in human MV4-11 cells assessed as late apoptotic cells at 1 uM incubated for 18 hrs by annexin V FITC and PI based flow cytometry (reference value: 9.2 to 9.63 %). It is filed as functional.
Data set [12] relates to MV4-11. Nature of the data set: Induction of apoptosis in human MV4-11 cells assessed as viable cells at 2 uM incubated for 18 hrs by annexin V FITC and PI based flow cytometry (reference value: 53.01 to 53.07 %). It is filed as functional.
For data set [13], the system named is MV4-11. Briefly: Induction of apoptosis in human MV4-11 cells assessed as late apoptotic cells at 2 uM incubated for 18 hrs by annexin V FITC and PI based flow cytometry (reference value: 9.2 to 9.63 %). It is filed as functional.
Data set [14] has as its system MV4-11. Nature of the data set: Induction of apoptosis in human MV4-11 cells assessed as viable cells at 4 uM incubated for 18 hrs by annexin V FITC and PI based flow cytometry (reference value: 53.01 to 53.07 %). Type of data set: functional.
The subject of data set [15] is MV4-11. Nature of the data set: Induction of apoptosis in human MV4-11 cells assessed as early apoptotic cells at 4 uM incubated for 18 hrs by annexin V FITC and PI based flow cytometry (reference value: 19.46 to 22.17 %). Type of data set: functional.
Data set [16] concerns MV4-11. Briefly: Induction of apoptosis in human MV4-11 cells assessed as late apoptotic cells at 4 uM incubated for 18 hrs by annexin V FITC and PI based flow cytometry (reference value: 9.2 to 9.63 %). It is filed as functional.
The test system of data set [17] is MV4-11. Nature of the data set: Induction of apoptosis in human MV4-11 cells assessed as late apoptotic cells incubated for 18 hrs by annexin V FITC and PI based flow cytometry. Type of data set: functional, cell-based.
Data set [18] can be described thus: Oral bioavailability in Balb/c nude mouse at 50 mg/kg measured upto 24 hrs by LC/MS/MS analysis. The conditions noted are these: in vivo. It is filed as ADME, organism-based.
Data set [19] deals with T1, Histone deacetylase 8 (Homo sapiens, UniProt Q9BY41).
T1 sequence (Q9BY41 whole entry): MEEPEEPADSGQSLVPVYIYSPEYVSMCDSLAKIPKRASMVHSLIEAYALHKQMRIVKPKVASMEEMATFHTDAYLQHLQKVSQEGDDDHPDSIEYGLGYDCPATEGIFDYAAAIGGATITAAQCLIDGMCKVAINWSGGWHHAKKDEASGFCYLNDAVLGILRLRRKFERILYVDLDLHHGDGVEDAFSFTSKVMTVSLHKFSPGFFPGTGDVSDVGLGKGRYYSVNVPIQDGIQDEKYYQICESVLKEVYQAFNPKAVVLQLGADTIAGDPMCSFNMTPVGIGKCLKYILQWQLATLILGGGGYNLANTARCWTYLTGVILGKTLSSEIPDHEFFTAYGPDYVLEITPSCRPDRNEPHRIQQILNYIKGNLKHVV
Nature of the data set: Inhibition of recombinant full length human HDAC8 expressed in baculovirus infected Sf9 cells using FAM-RHKK-TFAc as substrate incubated for 3 hrs by electrophoretic mobility shift assay.

The target in data set [20] is T2, Protein deacetylase HDAC6 (Homo sapiens, UniProt Q9UBN7).
T2 sequence (Q9UBN7 whole entry): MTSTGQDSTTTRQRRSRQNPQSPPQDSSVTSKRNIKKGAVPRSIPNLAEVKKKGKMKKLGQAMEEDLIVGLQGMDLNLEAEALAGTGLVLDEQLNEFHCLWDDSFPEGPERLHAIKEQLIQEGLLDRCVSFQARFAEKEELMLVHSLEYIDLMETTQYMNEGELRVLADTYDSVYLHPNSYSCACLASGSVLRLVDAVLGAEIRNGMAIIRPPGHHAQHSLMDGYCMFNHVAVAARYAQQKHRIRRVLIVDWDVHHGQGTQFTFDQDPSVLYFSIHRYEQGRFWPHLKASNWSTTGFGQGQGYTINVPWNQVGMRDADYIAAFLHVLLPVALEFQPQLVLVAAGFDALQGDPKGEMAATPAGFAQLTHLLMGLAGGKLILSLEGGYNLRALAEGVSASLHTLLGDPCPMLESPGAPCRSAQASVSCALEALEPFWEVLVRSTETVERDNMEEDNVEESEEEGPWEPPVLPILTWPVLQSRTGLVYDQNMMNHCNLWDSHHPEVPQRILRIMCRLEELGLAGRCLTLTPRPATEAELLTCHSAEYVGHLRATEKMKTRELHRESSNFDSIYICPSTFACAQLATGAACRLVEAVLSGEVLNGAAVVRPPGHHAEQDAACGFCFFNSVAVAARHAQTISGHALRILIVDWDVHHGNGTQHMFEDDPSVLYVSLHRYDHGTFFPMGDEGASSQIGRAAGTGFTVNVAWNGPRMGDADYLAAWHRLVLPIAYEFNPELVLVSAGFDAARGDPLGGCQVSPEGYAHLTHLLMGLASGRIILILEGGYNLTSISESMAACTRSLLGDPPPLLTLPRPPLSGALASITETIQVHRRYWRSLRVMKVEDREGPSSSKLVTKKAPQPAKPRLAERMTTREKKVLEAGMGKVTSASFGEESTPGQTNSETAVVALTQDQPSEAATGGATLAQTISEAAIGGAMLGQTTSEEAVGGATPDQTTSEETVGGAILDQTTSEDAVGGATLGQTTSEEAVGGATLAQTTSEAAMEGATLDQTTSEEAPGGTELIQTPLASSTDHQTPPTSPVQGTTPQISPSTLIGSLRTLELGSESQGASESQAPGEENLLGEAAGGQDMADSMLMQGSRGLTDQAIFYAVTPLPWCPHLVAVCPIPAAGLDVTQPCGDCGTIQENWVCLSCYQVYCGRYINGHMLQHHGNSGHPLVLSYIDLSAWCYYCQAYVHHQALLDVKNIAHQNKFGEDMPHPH
Nature of the data set: Inhibition of recombinant full length human HDAC6 expressed in baculovirus infected Sf9 cells assessed as inhibitory constant using FAM-RHKK-Ac as substrate incubated for 5 hrs by electrophoretic mobility shift assay.

Data set [21] concerns MOLM-13. Nature of the data set: Cytotoxicity against human MOLM13 cells assessed as reduction in cell viability incubated for 72 hrs by cell-titer blue assay. It is filed as functional, cell-based. The conditions noted are these: MOLM-13, 72 h.
The test system of data set [22] is MDA-MB-231. Nature of the data set: Cytotoxicity against human MDA-MB-231 cells assessed as reduction in cell viability incubated for 72 hrs by cell-titer blue assay. The conditions noted are these: MDA-MB-231, 72 h. It is filed as functional, cell-based.
The test system of data set [23] is MDA-MB-468. Nature of the data set: Cytotoxicity against human MDA-MB-468 cells assessed as reduction in cell viability incubated for 72 hrs by cell-titer blue assay. Type of data set: functional, cell-based. The conditions noted are these: MDA-MB-468, 72 h.
The nature of data set [24]: Cytotoxicity against human MRC9 cells assessed as reduction in cell viability incubated for 72 hrs by cell-titer blue assay. Type of data set: cell-based. The conditions noted are these: MRC9, 72 h.
Data set [25] is described as follows: Intrinsic clearance in ICR/CD1 mouse hepatocytes at 1 uM measured upto 120 mins by LCMS analysis. Type of data set: ADME, cell-based, Hepatocyte. The conditions noted are these: 2 h.
The nature of data set [26]: Protein binding in CD-1 mouse plasma at 1 uM incubated for 6 hrs by LCMS analysis. Type of data set: ADME, cell-free. The conditions noted are these: mouse, 6 h, 1 µM.
Data set [27] is described as follows: Stability in CD-1 mouse hepatocytes assessed as compound remaining at 1 uM measured up to 6 hrs by LCMS analysis. The conditions noted are these: CD-1, mouse, read-out: Stability. It is filed as ADME, cell-based, Hepatocyte.
The nature of data set [28]: Apparent permeability from apical to basolateral side in human Caco2 cells incubated for 2 hrs by LC/MS analysis. As to conditions: caco-2, 2 h. It is filed as ADME, cell-based, Caco-2.
Data set [29] can be described thus: Efflux ratio of apparent permeability in human Caco2 cells incubated for 2 hrs by LC/MS analysis. Type of data set: ADME, cell-based, Caco-2. The conditions noted are these: caco-2, 2 h.

A value given as a limit tells only on which side of the number the result lay.

With `O=C(CCCCCCC(=O)Nc1ccccc1)NO` [VORINOSTAT], in data set [1], the IC50 was 310 nM. Further, the Activity in data set [2] is 24.22%; in data set [3] it was 35.72%; in data set [4] it was 12.72%; in data set [5] it was 11.46%; in data set [6], 51.83%; in data set [7] it was 19.79%. Also, the Activity is on record as 38.87% in data set [8]; 15.37% in data set [9]; 28.82% in [10]; 27.29% in data set [11]; 24.13% in data set [12]; 30.07% in data set [13]. Moreover, the Activity in data set [14] was 20.37%; in data set [15], 35.44%; in [16], 26.52%; in [17] it was “Dose-dependent effect”. In addition, the bioavailability in [18] was 8%.

As to `CC(C)(C)c1ccc(CN(C(=O)CN(Cc2c(F)c(F)c(F)c(F)c2F)S(=O)(=O)c2ccc(F)cc2)c2ccc(C(=O)NO)cc2)cc1`, the IC50 in [19] was over 1000 nM; in data set [1] it was 1880 nM; in data set [21], 2100 nM; in data set [22] it was 2620 nM; in [23], 4210 nM; in data set [24], 19200 nM. For the same molecule, in data set [20], the Ki was 3600 nM. In addition, the CLH in data set [25] came out at 36 µL/min. For the same molecule, the PPB in [26] worked out at 99.6%. In data set [27], the remaining at 6 h, 1 µM stood at 20%. Also, the Papp in data set [28] is given as 0.27 ×10⁻⁶ cm/s. Besides, in data set [29], the Ratio came to 3.83.

Values taken from ChEMBL document CHEMBL4373747 (ACS Med Chem Lett, 2020).
